Experimental data: patent US20230416227A1, “PLASMA KALLIKREIN INHIBITORS” (Merck Sharp & Dohme LLC, priority 2020, published 2023)

What follows are compounds tested against T1, Human plasma kallikrein (Homo sapiens, UniProt P03952) (assay: Plasma Kallikrein Assay). Conditions: purified Human plasma kallikrein 0.5 nM, substrate Acetyl-K-P-R-AFC, pH 7.4.
T1 construct: yields a heavy chain (371 amino acids) and a light chain (248 amino acids); purchased Enzyme Research Laboratories
T1 sequence (P03952 391-638 limits assumed): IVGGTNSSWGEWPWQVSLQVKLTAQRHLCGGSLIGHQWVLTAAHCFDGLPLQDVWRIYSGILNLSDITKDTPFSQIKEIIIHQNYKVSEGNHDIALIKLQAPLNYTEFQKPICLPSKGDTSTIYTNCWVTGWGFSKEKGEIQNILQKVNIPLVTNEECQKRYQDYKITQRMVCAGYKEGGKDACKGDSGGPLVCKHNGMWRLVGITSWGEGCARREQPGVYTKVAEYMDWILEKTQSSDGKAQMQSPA
T1 sequence (P03952 20-390 partner limits assumed): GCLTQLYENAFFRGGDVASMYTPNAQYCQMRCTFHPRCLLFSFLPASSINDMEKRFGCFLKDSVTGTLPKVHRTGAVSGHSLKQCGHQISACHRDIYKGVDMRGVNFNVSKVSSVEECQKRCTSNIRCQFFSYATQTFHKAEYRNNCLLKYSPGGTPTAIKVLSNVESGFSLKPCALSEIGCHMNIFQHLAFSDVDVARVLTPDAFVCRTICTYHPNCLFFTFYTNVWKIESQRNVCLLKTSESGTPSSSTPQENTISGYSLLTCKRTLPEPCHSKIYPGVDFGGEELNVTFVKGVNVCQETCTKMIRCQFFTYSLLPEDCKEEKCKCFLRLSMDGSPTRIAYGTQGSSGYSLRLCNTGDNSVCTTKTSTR
Type: biochemical
Method: The effectiveness of a compound of the present invention as an inhibitor of plasma kallikrein can be determined using a relevant purified serine protease, and an appropriate synthetic substrate. The rate of hydrolysis of the chromogenic or fluorogenic substrate by the relevant serine protease was measured both in the absence and presence of compounds of the present invention. Assays were conducted at rt or at 37° C. […] A decrease in the rate of fluorescence change in the presence of inhibitor is indicative of enzyme inhibition. Such methods are known to one skilled in the art. The results of this assay are expressed as the half-maximal inhibitory concentrations (IC50), or the inhibitory constant, Ki.
Plasma kallikrein determinations were made in 50 mM HEPES buffer at pH 7.4 containing 150 mM NaCl, 5 mM CaCl2), and 0.1% PEG 8000 (polyethylene glycol; Fisher Scientific). […]
Times required to achieve equilibration between enzyme and inhibitor were determined in control experiments. The reactions were performed under linear progress curve conditions and fluorescence increase measured at 405 Ex/510 Em nm. […] IC50 was determined by inflection point from a four parameter logistic curve fit. Ki was calculated using the Cheng Prusoff equation, Ki=IC50/(1+([S]/Km)).
With `CC(N)C1CCCN1c1ncc(Cn2cc(NC(=O)c3cncc(-c4c(C(F)F)ccc(Cl)c4F)n3)cn2)cn1` (single isomer, unassigned) [Example 160, N-(1-((2-(2-(1-Aminoethyl)pyrrolidin-1-yl)pyrimidin-5-yl)methyl)-1H-pyrazol-4-yl)-6-(3-chloro-6-(difluoromethyl)-2-fluorophenyl)pyrazine-2-carboxamide] the IC50 was 42.9 nM. With `O=C(Nc1cnn(Cc2ccc(N3CC[C@@H]3CO)nc2)c1)c1cncc(-c2c(C(F)F)ccc(Cl)c2F)n1` [Example 68, (R)-6-(3-Chloro-6-(difluoromethyl)-2-fluorophenyl)-N-(1-((6-(2-(hydroxymethyl)azetidin-1-yl)pyridin-3-yl)methyl)-1H-pyrazol-4-yl)pyrazine-2-carboxamide] the IC50 was 26.3 nM. `O=C(Nc1cnn(Cc2cnc(N3CCC4OCCC43)nc2)c1)c1cncc(-c2c(C(F)F)ccc(Cl)c2F)n1` (single isomer, unassigned) [Example 103, 6-(3-Chloro-6-(difluoromethyl)-2-fluorophenyl)-N-(1-((2-((3aS,6aS or 3aR,6aR)-hexahydro-4H-furo[3,2-b]pyrrol-4-yl)pyrimidin-5-yl)methyl)-1H-pyrazol-4-yl)pyrazine-2-carboxamide] showed an IC50 of 31.3 nM. With `N#Cc1ccc(Cl)c(F)c1-c1cncc(C(=O)Nc2cnn(Cc3cnc(N4CCC4)nc3)c2)n1` [Example 53, N-(1-((2-(Azetidin-1-yl)pyrimidin-5-yl)methyl)-1H-pyrazol-4-yl)-6-(3-chloro-6-cyano-2-fluorophenyl)pyrazine-2-carboxamide] the IC50 was 30.7 nM. `O=C(Nc1cnn(Cc2ccc(N3CCNC4(CC4)C3)nc2)c1)c1cncc(-c2c(C(F)F)ccc(Cl)c2F)n1` [Example 128, N-(1-((6-(4,7-Diazaspiro[2.5]octan-7-yl)pyridin-3-yl)methyl)-1H-pyrazol-4-yl)-6-(3-chloro-6-(difluoromethyl)-2-fluorophenyl)pyrazine-2-carboxamide] showed an IC50 of 32.2 nM. Compound `CC1C2CC2CN1c1ncc(C(CO)n2cc(NC(=O)c3cncc(-c4c(C(F)F)ccc(Cl)c4F)n3)cn2)cn1` (single isomer, unassigned) [Example 50, 6-(3-Chloro-6-(difluoromethyl)-2-fluorophenyl)-N-(1-((S or R)-2-hydroxy-1-(2-((1R,2S,5S or 1S,2R, 5R)-2-methyl-3-azabicyclo[3.1.0]hexan-3-yl)pyrimidin-5-yl)ethyl)-1H-pyrazol-4-yl)pyrazine-2-carboxamide] has an IC50 of 1120 nM. `CN(C)CCN(C)c1ncc(Cn2cc(NC(=O)c3cncc(-c4c(C(F)F)ccc(Cl)c4F)n3)cn2)cn1` [Example 98, 6-(3-Chloro-6-(difluoromethyl)-2-fluorophenyl)-N-(1-((2-((2-(dimethylamino)ethyl)(methyl)amino)pyrimidin-5-yl)methyl)-1H-pyrazol-4-yl)pyrazine-2-carboxamide] gave an IC50 of 28.2 nM. With `CC(c1cnc(N2CC[C@H]2CN2CC[C@@H](O)C[C@@H]2C)nc1)n1cc(NC(=O)c2cncc(-c3c(C(F)F)ccc(Cl)c3F)n2)cn1` (stereo partly drawn) [Example 178, 6-(3-Chloro-6-(difluoromethyl)-2-fluorophenyl)-N-(1-(1-(2-((S)-2-(((2S,4R)-4-hydroxy-2-methylpiperidin-1-yl)methyl)azetidin-1-yl)pyrimidin-5-yl)ethyl)-1H-pyrazol-4-yl)pyrazine-2-carboxamide] the IC50 was 3.3 nM. In the case of `CC1C2CC2CN1c1ncc(C(CO)n2cc(NC(=O)c3cncc(-c4c(C(F)F)ccc(Cl)c4F)n3)cn2)cn1` (single isomer, unassigned) [Example 51, 6-(3-Chloro-6-(difluoromethyl)-2-fluorophenyl)-N-(1-((R or S)-2-hydroxy-1-(2-((1R,2S,5S or 1S,2R, 5R)-2-methyl-3-azabicyclo[3.1.0]hexan-3-yl)pyrimidin-5-yl)ethyl)-1H-pyrazol-4-yl)pyrazine-2-carboxamide], the IC50 is reported as 3770 nM. Compound `O=C(Nc1cnn(Cc2ccc(N3CCCC3CO)nc2)c1)c1cncc(-c2c(C(F)F)ccc(Cl)c2F)n1` (stereo not shown) [Example 118, 6-(3-Chloro-6-(difluoromethyl)-2-fluorophenyl)-N-(1-((6-(2-(hydroxymethyl)pyrrolidin-1-yl)pyridin-3-yl)methyl)-1H-pyrazol-4-yl)pyrazine-2-carboxamide] has an IC50 of 12.5 nM. `CN(CCN1CCCC1)c1ccc(Cn2cc(NC(=O)c3cncc(-c4c(C(F)F)ccc(Cl)c4F)n3)cn2)cn1` [Example 114, 6-(3-Chloro-6-(difluoromethyl)-2-fluorophenyl)-N-(1-((6-(methyl(2-(pyrrolidin-1-yl)ethyl)amino)pyridin-3-yl)methyl)-1H-pyrazol-4-yl)pyrazine-2-carboxamide] gave an IC50 of 2.7 nM. With `CC(c1cnc(N2CC[C@H]2[C@@H](C)N2CC(C)(O)C2)nc1)n1cc(NC(=O)c2cncc(-c3c(C(F)F)ccc(Cl)c3F)n2)cn1` (stereo partly drawn) [Example 190, 6-(3-Chloro-6-(difluoromethyl)-2-fluorophenyl)-N-(1-(1-(2-((S)-2-((R)-1-(3-hydroxy-3-methylazetidin-1-yl)ethyl)azetidin-1-yl)pyrimidin-5-yl)ethyl)-1H-pyrazol-4-yl)pyrazine-2-carboxamide] the IC50 was 3.5 nM. `CC1C2CC2CN1c1ncc(C(CO)n2cc(NC(=O)c3cncc(-c4c(C(F)F)ccc(Cl)c4F)n3)cn2)cn1` (single isomer, unassigned) [Example 49, 6-(3-Chloro-6-(difluoromethyl)-2-fluorophenyl)-N-(1-((R or S)-2-hydroxy-1-(2-((1S,2R,5R or 1R,2S, 5S)-2-methyl-3-azabicyclo[3.1.0]hexan-3-yl)pyrimidin-5-yl)ethyl)-1H-pyrazol-4-yl)pyrazine-2-carboxamide] was tested, and the IC50 was 17.6 nM. For `CC(c1cnc(N2CC[C@H]2[C@@H](C)N[C@@H]2CCC[C@H]2O)nc1)n1cc(NC(=O)c2cncc(-c3c(C(F)F)ccc(Cl)c3F)n2)cn1` (stereo partly drawn) [Example 193, 6-(3-Chloro-6-(difluoromethyl)-2-fluorophenyl)-N-(1-(1-(2-((S)-2-((R)-1-(((1R,2R)-2-hydroxycyclopentyl)amino)ethyl)azetidin-1-yl)pyrimidin-5-yl)ethyl)-1H-pyrazol-4-yl)pyrazine-2-carboxamide], the IC50 was 8.1 nM. Work on `CN1C2CCC1CN(c1ccc(Cn3cc(NC(=O)c4cncc(-c5c(C(F)F)ccc(Cl)c5F)n4)cn3)cn1)C2` [Example 205, 6-(3-Chloro-6-(difluoromethyl)-2-fluorophenyl)-N-(1-((6-(8-methyl-3,8-diazabicyclo[3.2.1]octan-3-yl)pyridin-3-yl)methyl)-1H-pyrazol-4-yl)pyrazine-2-carboxamide] yielded an IC50 of 14.1 nM. For `CC(c1cnc(N2CC[C@H]2CN2C[C@H](O)C[C@H]2C)nc1)n1cc(NC(=O)c2cncc(-c3c(C(F)F)ccc(Cl)c3F)n2)cn1` (stereo partly drawn) [Example 164, 6-(3-Chloro-6-(difluoromethyl)-2-fluorophenyl)-N-(1-(1-(2-((S)-2-(((2R,4R)-4-hydroxy-2-methylpyrrolidin-1-yl)methyl)azetidin-1-yl)pyrimidin-5-yl)ethyl)-1H-pyrazol-4-yl)pyrazine-2-carboxamide], the IC50 was 3.4 nM. For `CC(c1cnc(N2CC[C@H]2CN2CC(O)(C3CC3)C2)nc1)n1cc(NC(=O)c2cncc(-c3c(C(F)F)ccc(Cl)c3F)n2)cn1` (stereo partly drawn) [Example 172, 6-(3-Chloro-6-(difluoromethyl)-2-fluorophenyl)-N-(1-(1-(2-((S)-2-((3-cyclopropyl-3-hydroxyazetidin-1-yl)methyl)azetidin-1-yl)pyrimidin-5-yl)ethyl)-1H-pyrazol-4-yl)pyrazine-2-carboxamide], the IC50 was 1.8 nM. With `O=C(Nc1cnn(Cc2ccc(N3CCCC3CCO)nc2)c1)c1cncc(-c2c(C(F)F)ccc(Cl)c2F)n1` (stereo not shown) [Example 115, 6-(3-Chloro-6-(difluoromethyl)-2-fluorophenyl)-N-(1-((6-(2-(2-hydroxyethyl)pyrrolidin-1-yl)pyridin-3-yl)methyl)-1H-pyrazol-4-yl)pyrazine-2-carboxamide] the IC50 was 3.5 nM. For `CC(c1cnc(N2CC[C@H]2CN2CC(F)C2)nc1)n1cc(NC(=O)c2cncc(-c3c(C(F)F)ccc(Cl)c3F)n2)cn1` (stereo partly drawn) [Example 171, 6-(3-Chloro-6-(difluoromethyl)-2-fluorophenyl)-N-(1-(1-(2-((S)-2-((3-fluoroazetidin-1-yl)methyl)azetidin-1-yl)pyrimidin-5-yl)ethyl)-1H-pyrazol-4-yl)pyrazine-2-carboxamide], the IC50 was 4.9 nM. In the case of `CC(c1cnc(N2CC[C@H]2CN[C@H](C)C(C)(C)O)nc1)n1cc(NC(=O)c2cncc(-c3c(C(F)F)ccc(Cl)c3F)n2)cn1` (stereo partly drawn) [Example 182, 6-(3-Chloro-6-(difluoromethyl)-2-fluorophenyl)-N-(1-(1-(2-((S)-2-((((R)-3-hydroxy-3-methylbutan-2-yl)amino)methyl)azetidin-1-yl)pyrimidin-5-yl)ethyl)-1H-pyrazol-4-yl)pyrazine-2-carboxamide], the IC50 is reported as 6.1 nM. With `Cc1cc(N2CCC2)ncc1[C@@H](C)n1cc(NC(=O)c2cncc(-c3c(C(F)F)ccc(Cl)c3F)n2)cn1` (single isomer, unassigned) [Example 67] the IC50 was 153 nM. Work on `O=C(Nc1cnn(Cc2cnc(N3CCC4CC43)nc2)c1)c1cncc(-c2c(C(F)F)ccc(Cl)c2F)n1` (stereo not shown) [Example 108, N-(1-((2-(2-Azabicyclo[3.1.0]hexan-2-yl)pyrimidin-5-yl)methyl)-1H-pyrazol-4-yl)-6-(3-chloro-6-(difluoromethyl)-2-fluorophenyl)pyrazine-2-carboxamide] yielded an IC50 of 45 nM.
